# Patent US20200061087A1, “Inhibiting the Fungal Cell-Surface Phospate Transporter PHO84” (Children's Medical Center Corporation, priority 2017, published 2020)
# Columns and labels:
# [1] = system: ROS content of wild type (SC5314) cells; test: DCFDA detectable ROS measurement; type: cell-based, Candida albicans; conditions: wild type cells unexposed to external oxidative stressors; 500 microM foscarnet or 1 mM PAA, 1 hour; FIG. 20C
# Protocol: FIGS. 20A-20D depict data showing that TORC1 activity contributes to ROS management and Sod3 expression. FIG. 20A depicts dichlorodihydrofluorescein diacetate (DCFDA) detectable ROS measurement of strains, (1) PHO84/PHO84 containing vector (JKC1594), (2) pho84/pho84 containing vector (JKC1598), (3) PHO84/PHO84 overexpressing GTR1 (JKC1596), (4) pho84/pho84 overexpressing GTR1 (JKC1600). Cells cultured overnight in YPD were diluted into SC medium (Loflo) with vehicle or 8 ng/ml rapamycin for 1 hour, and fluorescence intensity was determined at excitation-485 nm and emission wavelength 528 nm after staining cells with 50 μM DCFDA. p=0.0252 for ratio of pho84−/− with vector and pho84−/− overexpressing GTR1 versus ratio of wild type with vector and wild type overexpressing GTR1; all cells exposed to vehicle. p=0.0014 for ratio of pho84−/− with vector and pho84−/− overexpressing GTR1 versus ratio of wild type with vector and wild type overexpressing GTR1; all cells exposed to rapamycin. p values calculated using Student's t-test. […] In FIG. 20C, wild type (SC5314) cells were exposed to vehicle, 500 microM foscarnet or 1 mM PAA for 1 hour, and fluorescence intensity was determined at excitation-485 nm and emission wavelength 528 nm after staining cells with 50 μM DCFH-DA. p<0.001 for both 500 microM foscarnet versus vehicle and 1 mM PAA versus vehicle. […]
# [2] = system: C. albicans wild type PHO84/PHO84 and pho84/pho84 null cells; test: Growth curves in liquid SC medium (OD600) during exposure to Pho84 inhibitors; type: cell-based, Candida albicans; conditions: wild type vs pho84−/− null; 1 and 4 mM PAA or 200 and 400 μM foscarnet; SC with 0.22 or 11 mM KH2PO4, 30° C.; FIG. 10A, B
# Protocol: FIGS. 10A-10D depict data showing that Foscarnet inhibits Pho84 in competition with Pi. Wild type PHO84/PHO84 (+/+, dark blue) (JKC915) and pho84/pho84 null (−/−, light blue) (JKC1450) cells were exposed to 1 and 4 mM PAA (FIG. 10A) or 200 and 400 μM foscarnet (FIG. 10B), and growth in SC medium with 0.22 mM or 11 mM KH2PO4 at 30° C. was monitored automatically every 15 minutes. FIGS. 10A and 10B are representative of 3 biological replicates; error bars show SD. FIG. 10C depicts a filamentation assay: in order to maximize reproducibility between replicate experiments, cells of wild type strain SC5314 were suspended in 0.9% NaCl to an OD600 of 0.1; then 3 μl of the suspension was spotted at equidistant points, using a template, around a Spider agar plate containing vehicle or 500 μM foscarnet. Spot edges were imaged to show the length and density of filaments extending from the edge of the spot into the agar medium. Scale bar 1 mm. […] OD600 was monitored automatically every 15 minutes. […]
# For cell dilutions spotted onto agar media as previously described (20), saturated overnight cultures were diluted in 5-fold steps from an OD600 of 0.5. […] For growth assays including those during drug exposure, OD600 readings were obtained every 15 min in a plate reader and standard deviations of 3 technical replicates were calculated and graphed in Graphpad Prism. […]
# [3] = system: TORC1 (Rps6 phosphorylation); test: Western blot for phosphorylated ribosomal protein S6 (P-S6) as readout of TORC1 activity; type: cell-based, Candida albicans; conditions: FIG. 4A
# Protocol: (§1) FIGS. 4A-4D depict data showing that small-molecule inhibition of Pho84 represses TORC1 and hyphal morphogenesis, and potentiates amphotericin B and micafungin antifungal activity. FIG. 4A depicts a Western blot of wild type (wt) (SC5314) cells with (1) vehicle, (2) 100 μM foscarnet (Fos), (3) 200 μM Fos, (4) 400 μM Fos, and strains (5, 7, 9, 11) PHO84+/+(JKC915), (6, 8) pho84−/+ (JKC1583) and (10, 12) pho84−/− (JKC1450), grown in standard SC (7.3 mM Pi) for 60 min, probed for P-S6 and tubulin. FIG. 4B depicts Wt (SC5314) spotted at equidistant points around RPMI agar (0.22 mM KH2PO4, pH 7) containing vehicle, 8 mM phosphonoacetic acid (PAA), or 500 μM Fos, grown at 37° C., and spot edges imaged. Compare with FIG. 7A. Bar 1 mm. FIG. 4C depicts Wt (SC5314) exposed to vehicle, 500 μM Fos, 0.2 μg/ml amphotericin B, and amphotericin B plus Fos; OD600 in SC with 0.5 mM KH2PO4 at 30° C. monitored every 15 minutes. FIG. 4D depicts Wt (SC5314) exposed to vehicle, 500 μM Fos, 25 ng/ml micafungin, and micafungin plus Fos; OD600 in SC with 0.5 mM KH2PO4 at 30° C. monitored every 15 minutes.
# Cell harvesting, lysis, Western blotting and densitometry were performed as described in Chowdhury T & Köhler JR (2015) Ribosomal protein S6 phosphorylation is controlled by TOR and modulated by PKA in Candida albicans. Molecular Microbiology 98(2):384-402. At least three biological replicates were obtained for each experiment shown.
# [4] = system: C. albicans wild type (SC5314); test: Potentiation of antifungals, growth curves (OD600) in SC with 0.5 mM KH2PO4; type: cell-based, Candida albicans; conditions: 500 μM Fos plus 0.2 μg/ml amphotericin B; 8 mM PAA plus 0.25 μg/ml amphotericin B; 30° C.; FIG. 4C, 10D
# Protocol: as §1, with “FIG. 4B depicts Wt (SC5314) spotted at equidistant points around RPMI agar (0.22 mM KH2PO4, pH 7) containing vehicle, 8 mM phosphonoacetic acid (PAA), or 500 μM Fos, grown at 37° C., and spot edges imaged. Compare with FIG. 7A. Bar 1 mm.” left out
# FIGS. 10A-10D depict data showing that Foscarnet inhibits Pho84 in competition with Pi. Wild type PHO84/PHO84 (+/+, dark blue) (JKC915) and pho84/pho84 null (−/−, light blue) (JKC1450) cells were exposed to 1 and 4 mM PAA (FIG. 10A) or 200 and 400 μM foscarnet (FIG. 10B), and growth in SC medium with 0.22 mM or 11 mM KH2PO4 at 30° C. was monitored automatically every 15 minutes. […] OD600 was monitored automatically every 15 minutes. […]
# [5] = system: C. albicans wild type, pho84−/− null and reintegrant cells; test: Growth in YPD with oxidative stressors (OD600); type: cell-based, Candida albicans; conditions: 25 μM plumbagin, 40 μM menadione, 40 mM H2O2, FIG. 16A
# Protocol: FIGS. 16A and 16B depict data showing that resistance to oxidative stressors is decreased, and Hog1 phosphorylation is increased in cells lacking PHO84. In FIG. 16A, overnight cultures were washed with normal saline and diluted to YPD with vehicle, 25 μM plumbagin, 40 μM menadione, and 40 mM H2O2 to OD600 0.1. OD600 was monitored every 15 minutes for strains +/+ (PHO84/PHO84), JKC915; −/− (pho84/pho84), JKC1450 and −/−/+(pho84/pho84::PHO84), JKC1588. FIG. 16B depicts a Western blot of cells incubated in YPD containing 5 mM H2O2 for 5 min, 10 min, 20 min, 30 min and 40 min. The membrane was probed for P-Hog1, total Hog1, and loading controls PSTAIRE and Histone H3. Strains, +/+ (PHO84/PHO84), JKC915; −/− (pho84/pho84), JKC1450 and −/−/+ (pho84/pho84::PHO84), JKC1588. FIGS. 16A and 16B show representatives of at least 3 biological replicates.
# For cell dilutions spotted onto agar media as previously described (20), saturated overnight cultures were diluted in 5-fold steps from an OD600 of 0.5. For growth curves in liquid media, saturated overnight cultures in YPD were washed once in 0.9% NaCl and diluted to an OD600 of 0.15 in 150 μl medium in flat bottom 96-well dishes. For growth assays including those during drug exposure, OD600 readings were obtained every 15 min in a plate reader and standard deviations of 3 technical replicates were calculated and graphed in Graphpad Prism. Growth during drug exposure was assayed in SC medium. Vehicle for Pho84 inhibitors PAA (Sigma, 284270) and Fos (Santa Cruz Biotechnology, # SC-253593A) was water and for amphotericin B (Sigma, A9528), DMSO. All panels shown represent at least 3 biological replicates.
# [6] = system: human peripheral blood derived neutrophils incubated with C. albicans; type: cell-based; conditions: neutrophils pretreated with different concentrations of NAC (up to 10 mM); 90 min, M.O.I. 2; dose-dependent; FIG. 12D
# Protocol: To examine whether in fact ROS are responsible for pho84−/− null cells' increased susceptibility to neutrophils' cidal activity, Candida-ingesting neutrophils were treated with the ROS-scavenging compound N-acetyl cysteine (NAC).
SMILES,ROS content (DCFDA detectable) [1],C. albicans growth inhibition in dependence on Pho84 [2],Potentiation of amphotericin B antifungal activity [4],Growth inhibition of pho84−/− null mutant compared with wild type [5],other results
"O=C(O)P(=O)(O)O [Fos, phosphonoformic acid]",increased the ROS content of wild type cells,inhibit C. albicans growth in dependence on the presence of their target Pho84,potentiate activity of the antifungal amphotericin B,–,"Rps6 phosphorylation (P-S6) ([3]; heterozygous pho84−/+ cells (JKC1583)): P-S6 was hypersensitive to Fos; Rps6 phosphorylation (P-S6) ([3]; pho84−/− cells lacking the target (JKC1450)): did not further decrease the P-S6 signal; Rps6 phosphorylation (P-S6) ([3]; wild type (SC5314) cells, 100, 200, 400 μM Fos, SC (7.3 mM Pi), 60 min): inhibited Rps6 phosphorylation (PS6) in a dose-dependent manner"
"OO [H2O2, hydrogen peroxide]",–,–,–,inhibited growth of the mutant more strongly than that of the wild type,–
"CC(=O)N[C@@H](CS)C(=O)O [NAC, N-acetyl cysteine]",–,–,–,–,Hypersensitivity of pho84−/− null cells to neutrophil killing [6]: rescued hypersensitivity of pho84−/− null cells to neutrophil killing
"O=C(O)CP(=O)(O)O [PAA, phosphonoacetic acid]",increased the ROS content of wild type cells,inhibit C. albicans growth in dependence on the presence of their target Pho84,potentiate activity of the antifungal amphotericin B,–,–
CC1=CC(=O)c2ccccc2C1=O [menadione],–,–,–,inhibited growth of the mutant more strongly than that of the wild type,–
CC1=CC(=O)c2c(O)cccc2C1=O [plumbagin],–,–,–,inhibited growth of the mutant more strongly than that of the wild type,–
